{
  "source": "patent US20240294543A1",
  "about": "“CYCLOHEPTA-THIENO-DIAZEPINE DERIVATIVES AS GABA A GAMMA1 PAM” (Hoffmann-La Roche Inc., priority 2021, published 2024)",
  "key": {"[1]": {"target": "human GABAA α2β2γ1 receptor (Homo sapiens (Human), UniProt P47869+Q8N1C3)", "test": "Radioligand binding assay, competition for [3H]RO7239181, γ1-containing GABAA subtypes"}, "[2]": {"target": "human GABAA α1β3γ2 receptor (Homo sapiens (Human), UniProt P14867+P18507)", "test": "Radioligand binding assay, competition for [3H]Flumazenil, γ2-containing GABAA subtypes", "details": "for γ2/γ1 Selectivity Ratio: Ki α1β3γ2 (nM)/Ki α2β2γ1 (nM); for LogSel: Log[Ki α1β3γ2 (nM)/Ki α2β2γ1 (nM)]", "method_in_brief": "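Competition against [3H]Flumazenil binding in HEK293F cells transiently expressing human α1β3γ2 receptors, pellets resuspended in mannitol buffer pH 7,2-7,4. Incubated to equilibrium 1 hour at 4° C, filtered and washed with ice-cold 50 mM Tris pH 7.5, bound radioactivity by liquid scintillation counting. Ki values are means of two determinations.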"}, "[3]": {"target": "human GABAA α5β2γ1 receptor (Homo sapiens (Human), UniProt P31644+Q8N1C3)", "test": "Radioligand binding assay, competition for [3H]RO7239181, γ1-containing GABAA subtypes"}, "[4]": {"details": "Ki h-GABAA α2β2γ1, Table 3, reference compounds and examples"}, "[5]": {"details": "Ki h-GABAA α2β2γ1, membranes of HEK293F cells, [3H]RO7239181 20-30 nM, Table 1"}, "[6]": {"details": "Ki h-GABAA α2β2γ1, membranes of HEK293F cells, [3H]RO7239181 20-30 nM, Table 2"}, "[7]": {"details": "read-out: Ki h-GABAA α1β3γ2, Table 3, reference compounds and examples"}},
  "note": "Read-outs that look alike come from different tables or passages of the source.",
  "data": [
    {"smiles": "Cc1nnc2n1-c1sc3c(c1C(c1c(F)cccc1F)=NC2)CCCCC3", "note": "[Example 1, 9-(2,6-difluorophenyl)-3-methyl-18-thia-2,4,5,8-tetrazatetracyclo[8.8.0.02,6.011,17]octadeca-1(10),3,5,8,11(17)-pentaene]", "values": [
      {"measurement": "Ki", "setting": "[1]; [4]", "result": 7.5, "unit": "nM"},
      {"measurement": "Ki", "setting": "[1]; [5]", "result": 7.5, "unit": "nM"},
      {"measurement": "Ki", "setting": "[1]; [6]", "result": 7.5, "unit": "nM"},
      {"measurement": "Ki", "setting": "[2]", "result": 374, "unit": "nM"},
      {"measurement": "γ2/γ1 Selectivity Ratio", "setting": "[2]; Table 1", "result": 49.6},
      {"measurement": "γ2/γ1 Selectivity Ratio", "setting": "[2]; Table 3", "result": 49.6},
      {"measurement": "LogSel", "setting": "[2]; Table 1", "result": 1.70},
      {"measurement": "LogSel", "setting": "[2]; Table 3", "result": 1.7},
      {"measurement": "Ki", "setting": "[2]; [7]", "result": 374, "unit": "nM"},
      {"measurement": "Ki", "setting": "[3]", "result": 1.4, "unit": "nM"}
    ]},
    {"smiles": "C[C@@H]1N=C(c2c(F)cccc2F)c2c(sc3c2CCCCC3)-n2ccc(=O)nc21", "note": "[Example 7, (8S)-10-(2,6-difluorophenyl)-8-methyl-19-thia-2,6,9-triazatetracyclo[9.8.0.02,7.012,18]nonadeca-1(11),3,6,9,12(18)-pentaen-5-one]", "values": [
      {"measurement": "Ki", "setting": "[1]; [5]", "result": 37.5, "unit": "nM"},
      {"measurement": "Ki", "setting": "[1]; [6]", "result": 37.5, "unit": "nM"},
      {"measurement": "Ki", "setting": "[2]", "result": 7690, "unit": "nM"},
      {"measurement": "γ2/γ1 Selectivity Ratio", "setting": "[2]; Table 1", "result": 205.1},
      {"measurement": "LogSel", "setting": "[2]; Table 1", "result": 2.31},
      {"measurement": "Ki", "setting": "[3]", "result": 2.24, "unit": "nM"}
    ]},
    {"smiles": "Cc1nnc2n1-c1sc3c(c1C(c1c(F)cccc1F)=N[C@H]2C)COCCO3", "note": "[Example 21, (7S)-9-(2,6-difluorophenyl)-3,7-dimethyl-13,16-dioxa-18-thia-2,4,5,8-tetrazatetracyclo[8.8.0.02,6.011,17]octadeca-1(10),3,5,8,11(17)-pentaene]", "values": [
      {"measurement": "Ki", "setting": "[1]; [4]", "result": 20.2, "unit": "nM"},
      {"measurement": "Ki", "setting": "[1]; [5]", "result": 20.2, "unit": "nM"},
      {"measurement": "Ki", "setting": "[1]; [6]", "result": 20.2, "unit": "nM"},
      {"measurement": "Ki", "setting": "[2]", "result": 1360, "unit": "nM"},
      {"measurement": "γ2/γ1 Selectivity Ratio", "setting": "[2]; Table 1", "result": 67.2},
      {"measurement": "γ2/γ1 Selectivity Ratio", "setting": "[2]; Table 3", "result": 67.2},
      {"measurement": "LogSel", "setting": "[2]; Table 1", "result": 1.83},
      {"measurement": "LogSel", "setting": "[2]; Table 3", "result": 1.8},
      {"measurement": "Ki", "setting": "[2]; [7]", "result": 1360, "unit": "nM"},
      {"measurement": "Ki", "setting": "[3]", "result": 2.33, "unit": "nM"}
    ]},
    {"smiles": "C[C@@H]1N=C(c2c(F)cccc2F)c2c(sc3c2COCCO3)-n2cc(C(=O)NCC3(O)CC3)nc21", "note": "[Example 65, (7S)-9-(2,6-difluorophenyl)-N-[(1-hydroxycyclopropyl)methyl]-7-methyl-13,16-dioxa-18-thia-2,5,8-triazatetracyclo[8.8.0.02,6.011,17]octadeca-1(10),3,5,8,11(17)-pentaene-4-carboxamide]", "values": [
      {"measurement": "Ki", "setting": "[1]; [5]", "result": 23.1, "unit": "nM"},
      {"measurement": "Ki", "setting": "[1]; [6]", "result": 23.1, "unit": "nM"},
      {"measurement": "Ki", "setting": "[2]; HEK293F cells, [3H]Flumazenil 1 nM, Table 1, read-out: Ki h-GABAA α1β3γ2", "result": 1240, "unit": "nM"},
      {"measurement": "γ2/γ1 Selectivity Ratio", "setting": "[2]; Table 1", "result": 53.8},
      {"measurement": "LogSel", "setting": "[2]; Table 1", "result": 1.73},
      {"measurement": "Ki", "setting": "[3]", "result": 1.69, "unit": "nM"}
    ]},
    {"smiles": "Cc1nnc2n1-c1sc3c(c1C(c1c(F)cccc1F)=N[C@H]2C)CC[C@@H](O)CC3", "note": "[Example 27, (7S,14R)-9-(2,6-difluorophenyl)-3,7-dimethyl-18-thia-2,4,5,8-tetrazatetracyclo[8.8.0.02,6.011,17]octadeca-1(10),3,5,8,11(17)-pentaen-14-ol]", "values": [
      {"measurement": "Ki", "setting": "[1]; [5]", "result": 42.8, "unit": "nM"},
      {"measurement": "Ki", "setting": "[1]; [6]", "result": 42.8, "unit": "nM"},
      {"measurement": "Ki", "setting": "[2]", "result": 11400, "unit": "nM"},
      {"measurement": "γ2/γ1 Selectivity Ratio", "setting": "[2]; Table 1", "result": 266.4},
      {"measurement": "LogSel", "setting": "[2]; Table 1", "result": 2.43},
      {"measurement": "Ki", "setting": "[3]", "result": 10.9, "unit": "nM"}
    ]},
    {"smiles": "CCc1nnc2n1-c1sc3c(c1C(c1c(F)cccc1F)=N[C@H]2C)COCCO3", "note": "[Example 42, (7S)-9-(2,6-difluorophenyl)-3-ethyl-7-methyl-13,16-dioxa-18-thia-2,4,5,8-tetrazatetracyclo[8.8.0.02,6.011,17]octadeca-1(10),3,5,8,11(17)-pentaene]", "values": [
      {"measurement": "Ki", "setting": "[1]; [5]", "result": 31.7, "unit": "nM"},
      {"measurement": "Ki", "setting": "[1]; [6]", "result": 31.7, "unit": "nM"},
      {"measurement": "Ki", "setting": "[2]", "result": 4270, "unit": "nM"},
      {"measurement": "γ2/γ1 Selectivity Ratio", "setting": "[2]; Table 1", "result": 134.9},
      {"measurement": "LogSel", "setting": "[2]; Table 1", "result": 2.13},
      {"measurement": "Ki", "setting": "[3]", "result": 2.9, "unit": "nM"}
    ]}
  ]
}
